Active and inactive are the calls of the source. The rule behind the calls is not given here.
Columns and labels:
[1] = target: Activated CDC42 kinase 1 (Homo sapiens) (UniProt Q07912); assay: Inhibition of human ACK1 assessed as residual activity at 1 uM using PolyEY as substrate in presence of 33P-ATP by ProQinase assay relative to control
[2] = target: Serine/threonine-protein kinase pim-1 (Homo sapiens) (UniProt P11309); assay: Inhibition of PIM1 (unknown origin) assessed as remaining activity at 1 uM by Kinome scan method relative to control
[3] = target: Serine/threonine-protein kinase MRCK beta (Homo sapiens) (UniProt Q9Y5S2); assay: Inhibition of human CDC42BPB assessed as residual activity at 1 uM using RB-S6P as substrate in presence of 33P-ATP by ProQinase assay relative to control
[4] = target: Serine/threonine-protein kinase 24 (Homo sapiens) (UniProt Q9Y6E0); assay: Inhibition of human MST3 assessed as residual activity at 1 uM using casein as substrate in presence of 33P-ATP by ProQinase assay relative to control
[5] = target: Dual specificity protein kinase TTK (Homo sapiens) (UniProt P33981); assay: Inhibition of TTK (unknown origin) assessed as remaining activity at 1 uM by Kinome scan method relative to control
[6] = Anti-inflammatory activity against human derived medium respond PBMC cells assessed as inhibition in stimulated INFgamma cytokine release incubated for 2 hrs in the presence of LPS/SEB/aCD28 by Luminex based sandwich immunoassay; format: functional, cell-based
[7] = tested on: Epidermal growth factor receptor (Homo sapiens), P00533 [G719C]; assay: Inhibition of human EGFR G719C mutant assessed as residual activity at 1 uM using PolyEY as substrate in presence of 33P-ATP by ProQinase assay relative to control
[8] = target: Cyclin-dependent kinase 5/CDK5 activator 1 (Homo sapiens) (UniProt Q00535+Q15078); assay: Inhibition of human CDK5/p25NCK assessed as residual activity at 1 uM using RBER-CHKtide as substrate in presence of 33P-ATP by ProQinase assay relative to control; format: protein-complex assay
[9] = tested on: Phosphatidylinositol 4,5-bisphosphate 3-kinase catalytic subunit alpha isoform (Homo sapiens), P42336 [Q546K]; assay: Inhibition of PIK3CA Q546K mutant (unknown origin) assessed as remaining activity at 1 uM by Kinome scan method relative to control
[10] = target: Ribosomal protein S6 kinase alpha-6 (Homo sapiens) (UniProt Q9UK32); assay: Inhibition of human RPS6KA6 assessed as residual activity at 1 uM using RBER-GSK3(14-27) as substrate in presence of 33P-ATP by ProQinase assay relative to control
[11] = target: Mitogen-activated protein kinase kinase kinase 3 (Homo sapiens) (UniProt Q99759); assay: Inhibition of human MEKK3 assessed as residual activity at 1 uM using casein as substrate in presence of 33P-ATP by ProQinase assay relative to control
[12] = target: Mitogen-activated protein kinase kinase kinase 11 (Homo sapiens) (UniProt Q16584); assay: Inhibition of MLK3 (unknown origin) assessed as remaining activity at 1 uM by Kinome scan method relative to control
[13] = target: Activin receptor type-1B (Homo sapiens) (UniProt P36896); assay: Inhibition of human ACVR1B assessed as residual activity at 1 uM using RBER-CHKtide as substrate in presence of 33P-ATP by ProQinase assay relative to control
[14] = target: T1, Serine/threonine-protein kinase BRSK1 (Homo sapiens) (UniProt Q8TDC3); assay: Inhibition of human BRSK1 assessed as residual activity at 1 uM using RBER-CHKtide as substrate in presence of 33P-ATP by ProQinase assay relative to control
T1 sequence (whole entry): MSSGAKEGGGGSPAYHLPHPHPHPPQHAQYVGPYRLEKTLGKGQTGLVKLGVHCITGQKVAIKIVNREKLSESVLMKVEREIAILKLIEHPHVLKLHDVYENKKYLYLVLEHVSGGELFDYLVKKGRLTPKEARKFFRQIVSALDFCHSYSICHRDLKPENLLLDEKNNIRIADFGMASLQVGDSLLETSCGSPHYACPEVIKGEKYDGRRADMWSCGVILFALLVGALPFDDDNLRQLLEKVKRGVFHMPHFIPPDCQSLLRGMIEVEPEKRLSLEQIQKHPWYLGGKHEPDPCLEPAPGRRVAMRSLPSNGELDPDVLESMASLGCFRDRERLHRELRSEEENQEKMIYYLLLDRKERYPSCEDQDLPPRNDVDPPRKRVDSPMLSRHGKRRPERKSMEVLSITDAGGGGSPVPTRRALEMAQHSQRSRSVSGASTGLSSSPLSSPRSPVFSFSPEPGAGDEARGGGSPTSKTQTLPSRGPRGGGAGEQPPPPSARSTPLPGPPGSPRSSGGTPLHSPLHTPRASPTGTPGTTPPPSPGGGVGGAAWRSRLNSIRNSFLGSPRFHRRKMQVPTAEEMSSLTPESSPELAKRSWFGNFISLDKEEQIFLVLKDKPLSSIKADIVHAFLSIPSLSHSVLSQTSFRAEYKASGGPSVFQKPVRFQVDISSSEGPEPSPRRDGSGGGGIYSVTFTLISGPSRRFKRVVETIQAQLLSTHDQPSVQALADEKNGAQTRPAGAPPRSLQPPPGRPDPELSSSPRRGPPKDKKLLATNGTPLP

[15] = target: Serine/threonine-protein kinase PAK 6 (Homo sapiens) (UniProt Q9NQU5); assay: Inhibition of human PAK6 assessed as residual activity at 1 uM using bio-4xCHKT as substrate in presence of 33P-ATP by ProQinase assay relative to control
[16] = target: MAP kinase p38 (Homo sapiens) (UniProt O15264+Q15759+Q16539+P53778); assay: Inhibition of p38-MAPK in human THP-1 cells assessed as change in HSP27 phosphorylation at Ser82 level at 80 nM preincubated for 30 mins in the presence of TNFalpha stimulation for 20 mins by western blot analysis; format: cell-based
[17] = tested on: Hepatocyte growth factor receptor (Homo sapiens), P08581 [M1250T]; assay: Inhibition of MET M1250T mutant (unknown origin) assessed as remaining activity at 1 uM by Kinome scan method relative to control
[18] = target: Dual specificity protein kinase CLK2 (Homo sapiens) (UniProt P49760); assay: Inhibition of human CLK2 assessed as residual activity at 1 uM using RBER-GSK3 as substrate in presence of 33P-ATP by ProQinase assay relative to control
[19] = Anti-inflammatory activity against human derived medium respond PBMC cells assessed as inhibition in stimulated IL-10 cytokine release incubated for 2 hrs in the presence of LPS/SEB/aCD28 by Luminex based sandwich immunoassay; format: functional, cell-based
[20] = target: BDNF/NT-3 growth factors receptor (Homo sapiens) (UniProt Q16620); assay: Inhibition of human TRKB assessed as residual activity at 1 uM using polyEY as substrate in presence of 33P-ATP by ProQinase assay relative to control

Sequence of Dual specificity protein kinase TTK (Homo sapiens) (P33981 whole entry): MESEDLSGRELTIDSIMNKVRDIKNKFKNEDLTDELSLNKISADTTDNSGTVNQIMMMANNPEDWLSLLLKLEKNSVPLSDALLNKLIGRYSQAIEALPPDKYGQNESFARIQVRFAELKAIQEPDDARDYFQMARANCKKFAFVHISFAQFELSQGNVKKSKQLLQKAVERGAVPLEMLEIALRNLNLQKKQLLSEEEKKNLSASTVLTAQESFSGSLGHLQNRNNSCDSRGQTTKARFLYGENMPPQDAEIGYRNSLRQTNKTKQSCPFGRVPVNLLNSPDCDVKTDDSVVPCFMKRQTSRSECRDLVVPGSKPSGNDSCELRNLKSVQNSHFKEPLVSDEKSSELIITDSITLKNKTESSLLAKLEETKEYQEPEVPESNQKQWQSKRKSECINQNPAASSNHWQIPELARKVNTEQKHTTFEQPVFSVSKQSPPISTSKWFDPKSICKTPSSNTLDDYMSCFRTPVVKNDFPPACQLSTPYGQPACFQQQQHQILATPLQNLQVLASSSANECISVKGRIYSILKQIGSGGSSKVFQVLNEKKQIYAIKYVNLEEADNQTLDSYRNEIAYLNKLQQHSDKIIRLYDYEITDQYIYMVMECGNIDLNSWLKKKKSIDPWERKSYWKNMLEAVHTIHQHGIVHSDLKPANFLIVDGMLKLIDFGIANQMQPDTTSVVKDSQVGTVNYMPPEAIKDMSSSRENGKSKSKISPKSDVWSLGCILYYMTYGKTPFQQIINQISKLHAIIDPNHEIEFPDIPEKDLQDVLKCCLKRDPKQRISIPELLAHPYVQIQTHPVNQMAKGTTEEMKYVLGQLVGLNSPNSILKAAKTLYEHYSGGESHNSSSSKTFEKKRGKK
Sequence of Serine/threonine-protein kinase PAK 6 (Homo sapiens) (Q9NQU5 whole entry, looked up): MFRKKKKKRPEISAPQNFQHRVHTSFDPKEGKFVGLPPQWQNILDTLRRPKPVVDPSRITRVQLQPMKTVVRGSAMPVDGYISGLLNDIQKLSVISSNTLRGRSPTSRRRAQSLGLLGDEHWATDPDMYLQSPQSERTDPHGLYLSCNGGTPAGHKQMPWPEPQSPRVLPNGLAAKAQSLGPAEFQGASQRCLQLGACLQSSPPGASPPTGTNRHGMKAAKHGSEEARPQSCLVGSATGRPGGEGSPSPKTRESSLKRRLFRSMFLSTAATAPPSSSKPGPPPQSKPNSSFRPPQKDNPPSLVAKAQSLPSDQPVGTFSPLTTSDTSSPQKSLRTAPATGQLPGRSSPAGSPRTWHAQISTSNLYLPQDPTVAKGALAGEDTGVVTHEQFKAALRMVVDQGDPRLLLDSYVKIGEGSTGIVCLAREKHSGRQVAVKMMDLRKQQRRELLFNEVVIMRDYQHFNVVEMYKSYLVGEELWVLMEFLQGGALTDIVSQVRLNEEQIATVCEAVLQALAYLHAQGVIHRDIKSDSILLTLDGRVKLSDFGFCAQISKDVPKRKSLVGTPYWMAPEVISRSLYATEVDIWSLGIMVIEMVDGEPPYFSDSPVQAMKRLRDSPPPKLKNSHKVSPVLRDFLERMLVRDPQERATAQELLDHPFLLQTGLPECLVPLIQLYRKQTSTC
Sequence of Ribosomal protein S6 kinase alpha-6 (Homo sapiens) (Q9UK32 whole entry): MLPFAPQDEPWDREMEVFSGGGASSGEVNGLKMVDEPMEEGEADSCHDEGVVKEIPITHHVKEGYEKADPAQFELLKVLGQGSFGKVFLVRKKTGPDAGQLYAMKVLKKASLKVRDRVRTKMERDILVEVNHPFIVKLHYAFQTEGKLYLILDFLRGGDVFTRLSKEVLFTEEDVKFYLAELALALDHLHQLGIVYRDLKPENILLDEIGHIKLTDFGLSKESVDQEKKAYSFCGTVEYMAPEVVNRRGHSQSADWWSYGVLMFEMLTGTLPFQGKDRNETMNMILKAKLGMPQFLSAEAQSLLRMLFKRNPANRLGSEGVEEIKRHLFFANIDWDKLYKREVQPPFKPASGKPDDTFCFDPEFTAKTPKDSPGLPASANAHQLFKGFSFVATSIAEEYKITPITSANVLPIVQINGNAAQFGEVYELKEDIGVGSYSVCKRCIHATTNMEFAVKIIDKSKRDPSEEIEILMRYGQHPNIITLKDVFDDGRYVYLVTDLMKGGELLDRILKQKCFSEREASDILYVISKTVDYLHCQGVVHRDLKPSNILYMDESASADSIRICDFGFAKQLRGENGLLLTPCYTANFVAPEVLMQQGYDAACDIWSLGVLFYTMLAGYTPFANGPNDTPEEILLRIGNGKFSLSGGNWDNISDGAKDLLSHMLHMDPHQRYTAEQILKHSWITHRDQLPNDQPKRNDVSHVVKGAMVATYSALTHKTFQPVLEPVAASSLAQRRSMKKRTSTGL
Sequence of Serine/threonine-protein kinase pim-1 (Homo sapiens) (P11309 whole entry, looked up): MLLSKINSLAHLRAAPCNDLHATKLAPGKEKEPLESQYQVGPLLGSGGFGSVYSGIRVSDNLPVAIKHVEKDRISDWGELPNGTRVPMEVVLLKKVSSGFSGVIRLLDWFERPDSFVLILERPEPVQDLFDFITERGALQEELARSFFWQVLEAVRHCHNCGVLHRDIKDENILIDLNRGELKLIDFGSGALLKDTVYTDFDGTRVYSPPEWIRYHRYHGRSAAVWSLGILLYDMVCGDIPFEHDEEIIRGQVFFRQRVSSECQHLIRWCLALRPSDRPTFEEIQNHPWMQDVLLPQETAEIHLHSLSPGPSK
Sequence of Mitogen-activated protein kinase kinase kinase 3 (Homo sapiens) (Q99759 whole entry): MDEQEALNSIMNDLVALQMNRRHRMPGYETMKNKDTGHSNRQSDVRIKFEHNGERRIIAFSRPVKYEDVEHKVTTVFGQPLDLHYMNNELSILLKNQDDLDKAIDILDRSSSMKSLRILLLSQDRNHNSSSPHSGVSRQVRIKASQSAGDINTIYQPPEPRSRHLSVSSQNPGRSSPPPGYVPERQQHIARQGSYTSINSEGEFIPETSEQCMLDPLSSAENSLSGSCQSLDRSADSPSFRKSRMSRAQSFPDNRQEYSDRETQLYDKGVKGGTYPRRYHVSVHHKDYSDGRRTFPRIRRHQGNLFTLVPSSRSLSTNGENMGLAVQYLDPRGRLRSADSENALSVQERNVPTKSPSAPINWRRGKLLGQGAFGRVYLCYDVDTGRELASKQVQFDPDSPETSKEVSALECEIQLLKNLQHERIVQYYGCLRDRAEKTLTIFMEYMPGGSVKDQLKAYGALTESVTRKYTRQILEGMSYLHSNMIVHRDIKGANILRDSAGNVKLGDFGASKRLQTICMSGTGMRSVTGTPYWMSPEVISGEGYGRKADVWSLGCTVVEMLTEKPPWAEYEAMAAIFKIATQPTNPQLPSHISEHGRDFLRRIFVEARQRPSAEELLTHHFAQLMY
Sequence of Activin receptor type-1B (Homo sapiens) (P36896 whole entry): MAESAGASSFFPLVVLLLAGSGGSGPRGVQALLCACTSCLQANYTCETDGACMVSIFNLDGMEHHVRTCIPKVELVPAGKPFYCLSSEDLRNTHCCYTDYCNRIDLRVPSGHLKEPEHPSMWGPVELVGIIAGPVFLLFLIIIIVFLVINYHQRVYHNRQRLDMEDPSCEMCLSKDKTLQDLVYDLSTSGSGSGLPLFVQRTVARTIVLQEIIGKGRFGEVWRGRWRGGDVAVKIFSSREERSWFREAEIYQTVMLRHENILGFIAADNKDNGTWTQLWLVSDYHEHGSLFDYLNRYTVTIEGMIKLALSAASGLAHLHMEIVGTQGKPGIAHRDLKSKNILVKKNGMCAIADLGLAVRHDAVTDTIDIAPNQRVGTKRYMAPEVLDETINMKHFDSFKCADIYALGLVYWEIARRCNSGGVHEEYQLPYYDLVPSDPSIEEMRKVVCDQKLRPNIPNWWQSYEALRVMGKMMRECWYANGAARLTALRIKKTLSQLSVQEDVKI
Sequence of Serine/threonine-protein kinase 24 (Homo sapiens) (Q9Y6E0 whole entry, looked up): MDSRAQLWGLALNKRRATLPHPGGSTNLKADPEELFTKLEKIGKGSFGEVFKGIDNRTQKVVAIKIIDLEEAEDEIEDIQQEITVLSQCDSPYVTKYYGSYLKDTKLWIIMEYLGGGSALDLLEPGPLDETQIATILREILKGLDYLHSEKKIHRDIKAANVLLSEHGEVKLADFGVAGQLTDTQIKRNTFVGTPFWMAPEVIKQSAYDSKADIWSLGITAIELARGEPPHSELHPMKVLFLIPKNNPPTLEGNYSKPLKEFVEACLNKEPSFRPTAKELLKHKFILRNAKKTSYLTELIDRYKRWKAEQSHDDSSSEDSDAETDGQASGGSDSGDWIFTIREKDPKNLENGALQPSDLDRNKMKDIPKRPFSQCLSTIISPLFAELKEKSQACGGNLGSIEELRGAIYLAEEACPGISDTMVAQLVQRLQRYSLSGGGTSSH
Sequence of Dual specificity protein kinase CLK2 (Homo sapiens) (P49760 whole entry, looked up): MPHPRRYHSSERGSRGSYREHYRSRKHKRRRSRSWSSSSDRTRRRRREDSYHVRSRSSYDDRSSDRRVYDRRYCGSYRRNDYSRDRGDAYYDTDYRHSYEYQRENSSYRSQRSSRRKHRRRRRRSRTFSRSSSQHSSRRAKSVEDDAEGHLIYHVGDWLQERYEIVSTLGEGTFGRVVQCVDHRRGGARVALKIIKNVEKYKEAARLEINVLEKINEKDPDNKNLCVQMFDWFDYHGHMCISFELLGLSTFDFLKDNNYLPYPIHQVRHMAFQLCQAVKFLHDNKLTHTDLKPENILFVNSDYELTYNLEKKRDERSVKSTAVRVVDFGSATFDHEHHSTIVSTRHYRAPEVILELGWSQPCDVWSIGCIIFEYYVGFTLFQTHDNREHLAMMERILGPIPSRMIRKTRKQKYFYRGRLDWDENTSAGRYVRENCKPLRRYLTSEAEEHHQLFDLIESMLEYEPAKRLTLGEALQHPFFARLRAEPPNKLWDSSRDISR

O=C1c2ccc(Nc3ccc(F)cc3F)cc2CCc2ccc(OC[C@H](O)CO)cc21 [Skepinone-L]
Activity [1]: 108% | Activity [2]: 100% | Activity [3]: 83% | Activity [4]: 106% | Activity [5]: 100% | IC50 [6]: 300 nM | Activity [7]: 74% | Activity [8]: 99% | Activity [9]: 100% | Activity [10]: 85% | Activity [11]: 96% | Activity [12]: 96% | Activity [13]: 77% | Activity [14]: 94% | Activity [15]: 101% | inhibition [16]: Active | Activity [17]: 93% | Activity [18]: 89% | IC50 [19]: 60 nM | Activity [20]: 77%

Source: ChEMBL document CHEMBL5696441 (Nat Chem Biol, 2011)
